“Also recorded” adds a separate entry of the source.
How the values were obtained:
MB16 cells [1] = experiment: In vitro proliferation of MB16 cells treated with recombinant IL-18; format: cell-based, murine; conditions: 2.5 μM pretreatment; 10 ng/ml IL-18; 48 h
Protocol: In vitro Melanoma cell proliferation test. The MB16 or MA375 cells are seeded (2500 cells/well/200 μl) in DMEM medium (Dulbecco's modified Eagle's medium) with 10% fetal bovine serum (FBS). Once adhered, they were washed to remove the FBS and fresh medium was added in the presence or absence of 2.5 μM of the compounds to be tested. In the experiments with MA375, the compound azaresveratrol (see Table 4) was used, and in the experiments with MB16 cells, the compounds azaresveratrol, JE1:2, JE2:1 or JE2:2 (see FIG. 3) were used. Thirty (30) minutes later, 10 ng/ml of IL-18 or HSC-conditioned media (murines in the case of B16 and human ones in the case of A375) were added to some wells, and the plates were incubated for 48 hours at 37° C. with 5% CO2 Upon completion of the incubation period, the cells were fixed with […] for 1 hours, were washed and were allowed to dry in the incubator at 50° C. for 30 minutes. In following, 100 μl/well of sulforhodamine 101 (0.4% p/v) was added and they were incubated at room temperature in the dark for 30 minutes. After washing, 200 μl/well of Tris base 10 mM pH 10.5 was added and the fluorescence was measured by means of a 530 nm, 620 nm emission excitation filter plate fluorescence reader. The number of cells was calculated by extrapolating said fluorescence data on a standard straight line previously obtained based on the fluorescence emitted in an increasing number of cells.

HSE cells [2] = experiment: Hydrogen peroxide production from primary cultured HSE cells (DCFH-DA probe); format: cell-based, mouse; conditions: 2.5 μM
From the text: (§1) Isolation of primary murine cultures of hepatic sinusoidal endothelial (HSE) cells. The hepatic sinusoidal cells were isolated from C57BL/6J mice (males, aged 6-8 weeks) supplied by IFFA Credo (L'Arbreole, France), followed by a purification and identification of the HSE cells following the protocol described by Vidal-Vanaclocha et al. (1993) [Vidal-Vanaclocha, F., Rocha, M., Asumendi, A. & Barbera-Guillem, E. Isolation and enrichment of two sublobular compartment-specific endothelial cell subpopulations from liver sinusoids. Hepatology, 1993, 18, 328-339]. Stable primary cultures of HSE cells were obtained after seeding the cells on a type I collagen substrate (Sigma Chemicals Co, St Louis, Mo.), and the cultures were maintained in DMEM-HCO^3−, penicillin (100 U/ml), streptomycin (100 μg/ml), supplemented with 10% fetal bovine serum at 37° C. with 5% CO2 in atmosphere at 98% humidity.
(§2) Determination of hydrogen peroxide production from HSE and MB16 cells. Primary cultures of HSE cells were treated with 10 μg/ml of the DCFH-DA fluorescent probe for 30 minutes at 37° C. and were washed to eliminate the excess fluorochromium. Afterward, fresh culture medium was added thereto in the presence or absence of 2.5 μM of the compounds JE1:2, JE2:1 or JE2:2 and the production of H202 over the course of time was determined (see FIG. 5). The hydrogen peroxide produced by the cells oxidizes the probe, converting it into a fluorescent molecule. Thus, the cell fluorescence produced by the accumulation of DCF made it possible to detect the intracellular production of hydrogen peroxide. In each cell well, it was possible to determine the relative fluorescence value (arbitrary units of fluorescence brightness) in relation to the quantity of hydrogen peroxide produced at different incubation times. In the experiments with MB16 cells, once the cells had been marked with the DCFH-DA probe, they were incubated for 300 minutes with 2.5 μM of the azaresveratrol or JE2:2 compounds, 10 ng/ml of IL-18 (FIG. 4) then having been added.

MB16 cells [3] = experiment: MB16 cell adhesion to immobilized VCAM-1 substrates (H2O2-treated); format: cell-based, murine; conditions: 2.5 μM preincubation; 10 μM H2O2
Protocol: MB16 and MA375 cell adhesion to immobilized VCAM-1 substrates. The MB16 and MA375 cell adhesion tests were conducted on immobilized VCAM-1 substrates (2 μg/ml of recombinant human VCAM-1, R&D Systems, Minneapolis, Minn.) on 96-well plates. To avoid non-specific attachment to the plastic, 0.5% BSA dissolved in PBS was added to the wells for 2 hours at ambient temperature prior to conducting the adhesion test. The melanoma cells were preincubated with 2.5 μM of the compounds to be tested (azaresveratrol, see Table 2; JE1:2, JE2:1 and JE2:2 see FIG. 2; JEM2:2-01 and JEM2:1-02 see FIG. 7; YEF02, YEF03, YEF07, YEF05B, YEF07B and YEF05H. see FIG. 9) for 30 minutes, to which 10 μM of hydrogen peroxide or 10 ng/ml of IL-18 were added, respectively for a further 24 hours. Afterward, the cells were washed and marked with the BCECF-AM fluorescent probe (carboxyfluorescein, 2′,7′-bis-(2-carboxy-ethyl)-5-(6)carboxyfluorescein aminoxymethyl ester). Thirty minutes later, a washing process was performed to remove the excess fluorochromium, the number of viable cells being calculated by means of the trypan blue exclusion test and (5×10^4 cells/well) being added to the 96-well plate. The co-culture plates were incubator-incubated at 37° C. for 1 hours. The percentage of cellular adhesion was calculated by measuring the fluorescence emitted by the adhered cells (obtained after washing the plate) with regard to the fluorescence emitted by the total number of cells added. The results in the figures are given in values related to the adhesion percentages of the untreated melanoma cells.

HSE cells [4] = experiment: MB16 cell adhesion to HSE cells treated with MC-MB16; format: cell-based, mouse; conditions: 2.5 μM prior to MC-MB16
From the text: as §1
MB16 cell adhesion to the monolayer of HSE cells in culture. The endothelial cells were isolated 24 hours prior to the adhesion test and were seeded on 24-well plate, maintaining them a minimum of 4 hours in serum-free medium before incubating them with DMEM in the presence or not of MC-MB16 for 8 hours. The synthesized compounds (JE2:2 see FIG. 6; JEM2:2-01 and JEM2:1-02 see FIG. 8A; YEF02, YEF03, YEF07, YEF05B, YEF07B and YEF05H see FIG. 10) were added to a 2.5 μM concentration prior to the MC-MB16. On the other hand, the MB16 cells were marked with 40 μg/ml from the fluorescent probe BCECF-AM (carboxyfluorescein, 2′,7′-bis-(2-carboxy-ethyl)-5-(6)carboxyfluorescein aminoxymethyl ester) supplied by Molecular Probes Inc. (Oregon, USA). Afterward, a washing process was performed with DMEM-HCO3−—to remove the excess fluorochromium, the number of viable cells being calculated by means of the trypan blue exclusion test and resuspended to a concentration of 2×10^5 cells/ml. Lastly, 1 ml of the MB16 cell suspension was added to each well on the primary HSE cell culture plate. The co-culture plates were incubator-incubated at 37° C. for 8 minutes. The percentage of cellular adhesion was calculated by means of the a fluorescence measurement system described by Vidal-Vanaclocha et al. (1994) [Vidal-Vanaclocha, F., Amézaga, C., Asumendi, A., Kaplanski, G. & Dinarello, C. A. Interleukin-1 receptor blockade reduces the number and size of murine B16 melanoma hepatic metastases. Cancer Research, 1994, 54, 2667-2672]. In the experiments with IL-18, the MB16 cells were incubated with 10 ng/ml of IL-18 for 4 hours prior to being marked with BCECF-AM and were adhered to the HSE cell plate. The results in the figures are given as values related to the adhesion percentages of the untreated HSE cells.

PGE2 = experiment: EIA of PGE2 in supernatant of VEGF-treated HSE cells (evidence of cyclooxygenase-2 activity); format: cell-based, mouse; conditions: 1, 2.5 and 10 μM; 10 ng/ml VEGF for 4 hours
Protocol: PGE2 determination in HSE cell supernatants (see FIG. 11). Primary cultured HSE cells were incubated in the presence or absence of increasing concentrations (1, 2.5 and 10 μM) of the compounds JE2:2, YEF07 and YEF05B for 30 minutes. In following, 10 ng/ml of recombinant murine VEGF or the same volume of saline solution was added, 4 hours after which supernatants were collected and the PGE2 concentration determined by enzymatic immunoassay (EIA) supplied by Amersham Biosciences (Uppsala, Sweden).

[5] = Water solubility (statement); format: physicochemical
MB16 cells [6] = experiment: MB16 hepatic metastasis test after intrasplenic injection; format: in vivo, C57BL/6J mice; conditions: JE2:2 intraperitoneal 2.5 mg/kg, 1 hour prior and days 2, 3, 4, 8, 9, 10, 11; day 12; vs PBS; P<0.01
MB16 cells [7] = experiment: Hydrogen peroxide production from MB16 cells (DCFH-DA probe); format: cell-based, murine
Protocol: as §2

TNF-alpha = experiment: ELISA of TNF-alpha in supernatant of MC-MB16-treated HSE cells; format: cell-based, mouse; conditions: 2.5 μM for 30 minutes before MC-MB16; 8 hours
Protocol: ELISA determination of the TNF-alpha concentration in the supernatant from MC-MB16-treated HSE cells. Primary cultured HSE cells were incubated in the presence or absence of 2.5 μM of the synthesized compounds (JEM2:2-01 and JEM2:1-02 see FIG. 8B) for 30 minutes, after which MB16-conditioned media were added. Eight (8) hours later, the supernatant from cultured endothelial cells were collected, filtered through 0.22 μm membranes and the concentration of TNF-alpha was then assayed using the ELISA test (R&D Systems).

SMILES | Increase in the number of MB16 cells by IL-18 (proliferation, in words) (MB16 cells [1]) | Endothelial (HSE) production of H2O2 (in words) (HSE cells [2]) | Increase in H2O2-treated MB16 cell adhesion to immobilized VCAM-1 (in words) (MB16 cells [3]) | Increase in adhesion of MB16 cells to HSE activated by MC-MB16 / proadhesive response of HSE (in words) (HSE cells [4]) | Increase in endothelial secretion of PGE2 after VEGF (in words) (PGE2) | further results
COC(=O)c1[nH]c(-c2cc(O)cc(O)c2)cc1-c1ccc(O)cc1 [JE2:1, 5-(3,5-Dihydroxyphenyl)-3-(4-hydroxyphenyl)-1H-pyrrole-2-methyl carboxylate] | reduced said increase | inhibitory effect | significantly (P<0.01) inhibits | – | – | –
COc1ccc(OC)c(-c2cc3c(OC)cc(OC)cc3n2C(=O)OC(C)(C)C)c1 [YEF07B, 4,6-Dimethoxy-2-(2,5-dimethoxyphenyl)-1H-indole-1-tert-butyl carboxylate] | – | – | significantly (P<0.01) inhibited | significantly (P<0.01) reduced | – | –
COc1cc(OC)cc(-c2cc3c(OC)cc(OC)cc3n2C(=O)OC(C)(C)C)c1 [YEF05B, 4,6-Dimethoxy-2-(3,5-dimethoxyphenyl)-1H-indole-1-tert-butyl carboxylate] | – | – | significantly (P<0.01) inhibited | significantly (P<0.01) reduced | significantly inhibited | –
COC(=O)c1[nH]c(-c2cc(O)cc(O)c2)cc1-c1cc(O)cc(O)c1 [JE2:2, 3,5-bis(3,5-Dihydroxyphenyl)-1H-pyrrole-2-methyl carboxylate] | reduced said increase; also recorded: most highly effective | inhibited | significantly (P<0.01) inhibits; also recorded: greatest inhibitory effect | significantly (P<0.01) reduced | significantly inhibited; also recorded: dose-response | Water solubility (in words) [5]: highly water-soluble; Reduction of the mean density of hepatic metastasis (MB16 cells [6]): 87%; Reduction of the volume occupied by metastatic tissue (MB16 cells [6]): 90%; Increase of H2O2 production of MB16 cells in response to IL-18 (in words) (MB16 cells [7]; 2.5 μM prior to IL-18): completely abrogated; H2O2 production of MB16 cells in basal conditions (in words) (MB16 cells [7]; 2.5 μM, no IL-18): inhibited
COC(=O)c1[nH]c(-c2ccc(O)cc2)cc1-c1cc(O)cc(O)c1 [JE1:2, 3-(3,5-Dihydroxyphenyl)-5-(4-hydroxyphenyl)-1H-pyrrole-2-methyl carboxylate] | reduced said increase | inhibitory effect | significantly (P<0.01) inhibits | – | – | –
Oc1ccc(O)c(-c2cc3c(O)cc(O)cc3[nH]2)c1 [YEF05H, 2-(2,5-Dihydroxyphenyl)-1H-indole-4,6-diol] | – | – | significantly (P<0.01) inhibited | significantly (P<0.01) reduced | – | –
COc1cc(OC)cc(-c2cc3c(OC)cc(OC)cc3[nH]2)c1 [YEF07, 4,6-Dimethoxy-2-(3,5-dimethoxyphenyl)-1H-indole] | – | – | significantly (P<0.01) inhibited | significantly (P<0.01) reduced | significantly inhibited | –
COC(=O)c1[nH]c(-c2cc(OC)cc(OC)c2)cc1-c1cc(OC)cc(OC)c1 [JEM2:2-01, 3,5-bis(3,5-Dimethoxyphenyl)-1H-pyrrole-2-methyl carboxylate] | – | – | completely abrogated | significantly (P<0.01) reduced; also recorded: greater inhibition | – | Endothelial production of TNF-alpha induced by MC-MB16 (in words) (TNF-alpha): inhibits

Source: patent US8097656B2, “Nitrogenated trans-stilbene analogs, method for the obtention and medical applications thereof” (Dominion Pharmakine S.L, priority 2005, dated 2012)
